Source: patent US6274715A, “Tricyclic erythromycin derivatives” (priority 1997, dated 2001)
Converted amounts (≈) assume the structure as drawn. Where two headings read alike, the source gives them in different places.

Experiments:
Format in all cases: cell-based
[1] = tested on: STAPHYLOCOCCUS AUREUS ATCC 6538P; test: In vitro antibacterial activity, MIC, BHI agar dilution; details: S. aureus ATCC 6538P, 35-37° C., 20 to 24 hours, unit assumed
[2] = tested on: STAPHYLOCOCCUS AUREUS A5177; test: as above; details: S. aureus A5177, unit assumed
[3] = tested on: STAPHYLOCOCCUS AUREUS A-5278; test: as above; details: S. aureus A-5278, unit assumed
[4] = tested on: STAPHYLOCOCCUS AUREUS CMX 642A; test: as above; details: S. aureus CMX 642A, unit assumed
[5] = tested on: STAPHYLOCOCCUS AUREUS NCTC10649M; test: as above; details: S. aureus NCTC10649M
[6] = tested on: STAPHYLOCOCCUS AUREUS CMX 553; test: as above; details: S. aureus CMX 553, unit assumed
[7] = tested on: STAPHYLOCOCCUS AUREUS 1775; test: as above; details: S. aureus 1775, unit assumed
[8] = tested on: STAPHYLOCOCCUS EPIDERMIDIS 3519; details: S. epidermidis 3519; BHI agar; unit assumed
EN[…] ATCC 8043 = test: In vitro antibacterial activity, MIC, BHI agar dilution
Procedure: (§1) Representative compounds of the present invention were assayed in vitro for antibacterial activity as follows: Twelve petri dishes containing successive aqueous dilutions of the test compound mixed with 10 mL of sterilized Brain Heart Infusion (BHI) agar (Difco 0418-01-5) were prepared. Each plate was inoculated with 1:100 (or 1:10 for slow-growing strains, such as Micrococcus and Streptococcus) dilutions of up to 32 different microorganisms, using a Steers replicator block. The inoculated plates were incubated at 35-37° C. for 20 to 24 hours. In addition, a control plate, using BHI agar containing no test compound, was prepared and incubated at the beginning and end of each test.
(§2) An additional plate containing a compound having known susceptibility patterns for the organisms being tested and belonging to the same antibiotic class as the test compound was also prepared and incubated as a further control, as well as to provide test-to-test comparability. Erythromycin A was used for this purpose.
(§3) After incubation, each plate was visually inspected. The minimum inhibitory concentration (MIC) was defmed as the lowest concentration of drug yielding no growth, a slight haze, or sparsely isolated colonies on the inoculum spot as compared to the growth control.

M[…] ATCC 4698 = test: as above; details: M. luteus ATCC 4698, unit assumed
Procedure: as §1, §2, §3

M[…] ATCC 9341 = test: as above
Procedure: as §1, §2, §3

STR[…] 508 = test: as above
Procedure: as §1, §2, §3

[9] = tested on: STREPTOCOCCUS BOVIS A-5169; test: as above; details: S. bovis A-5169, unit assumed
[10] = tested on: STREPTOCOCCUS PYOGENES EES61; test: as above; details: S. pyogenes EES61, unit assumed
[11] = tested on: STREPTOCOCCUS PYOGENES 930; test: as above
ESCHERICHIA COLI JUHL = details: E. coli JUHL, BHI agar, unit assumed
ESCHERICHIA COLI DC-2 = test: In vitro antibacterial activity, MIC, BHI agar dilution; details: E. coli DC-2, unit assumed
ESCHERICHIA COLI H560 = test: as above
ESCHERICHIA COLI KNK 437 = details: E. coli KNK 437; BHI agar; unit assumed
[12] = tested on: ENTEROBACTER AEROGENES ATCC 13048; test: In vitro antibacterial activity, MIC, BHI agar dilution
[13] = tested on: KLEBSIELLA PNEUMONIAE ATCC 8045; test: as above; details: K. pneumoniae ATCC 8045, unit assumed
[14] = tested on: PROVIDENCIA STUARTII CMX 640; details: P. stuartii CMX 640; BHI agar; unit assumed
[15] = tested on: PSEUDOMONAS AERUGINOSA BMH10; test: In vitro antibacterial activity, MIC, BHI agar dilution
[16] = tested on: PSEUDOMONAS AERUGINOSA 5007; test: as above; details: P. aeruginosa 5007, unit assumed
[17] = tested on: PSEUDOMONAS AERUGINOSA K799/WT; test: as above; details: P. aeruginosa K799/WT
[18] = tested on: PSEUDOMONAS AERUGINOSA K799/61; test: as above
PSEUDOMONAS CEPACIA 296I = test: as above; details: P. cepacia 296I, unit assumed
[19] = tested on: PSEUDOMONAS AERUGINOSA DPHD-5263; test: as above; details: P. aeruginosa DPHD-5263, unit assumed
[20] = tested on: PSEUDOMONAS AERUGINOSA DPHD-2862; test: as above; details: P. aeruginosa DPHD-2862, unit assumed
CANDIDA ALBICANS CCH 442 = test: as above; details: C. albicans CCH 442, unit assumed
[21] = tested on: MYCOBACTERIUM SMEGMATIS ATCC 114; test: as above; details: M. smegmatis ATCC 114, unit assumed
[22] = tested on: STREPTOCOCCUS PYOGENES PIU 2548; test: as above; details: S. pyogenes PIU 2548, unit assumed
ESCHERICHIA COLI SS = test: as above; details: E. coli SS, unit assumed
[23] = E. faecium ATCC 8043, unit assumed
[24] = M. luteus ATCC 9341, unit assumed
[25] = S. agalactiae CMX 508, unit assumed
[26] = E. aerogenes ATCC 13048, unit assumed
[27] = P. aeruginosa BMH10, unit assumed
[28] = P. aeruginosa K799/61, unit assumed

Row | SMILES | MIC [1] [µg/mL] | MIC [2] [µg/mL] | MIC [3] [µg/mL] | MIC [4] [µg/mL] | MIC ([5]; unit assumed) [µg/mL] | MIC [6] [µg/mL] | MIC [7] [µg/mL] | MIC [8] [µg/mL] | MIC (EN[…] ATCC 8043; [23]) [µg/mL] | MIC (M[…] ATCC 4698) [µg/mL] | MIC (M[…] ATCC 9341; [24]) [µg/mL] | MIC (STR[…] 508; [25]) [µg/mL] | MIC [9] [µg/mL] | MIC [10] [µg/mL] | MIC ([11]; S. pyogenes 930, unit assumed) [µg/mL] | MIC (ESCHERICHIA COLI DC-2) [µg/mL] | MIC (ESCHERICHIA COLI H560; E. coli H560, unit assumed) [µg/mL] | MIC (ESCHERICHIA COLI KNK 437) [µg/mL] | MIC [12, 26] [µg/mL] | MIC [13] [µg/mL] | further results
1 | CC[C@H]1OC(=O)[C@H](C)C(=O)[C@H](C)[C@@H](O[C@@H]2O[C@H](C)C[C@H](N(C)C)[C@H]2O)[C@](C)(OC)C[C@@H](C)C2=N[C@H](Cc3ccccc3)CN3C(=O)O[C@@]1(C)[C@H]3[C@H]2C [Example 3] | 0.39 (≈ 0.536 µM) | 0.39 (≈ 0.536 µM) | > 100 | 0.39 (≈ 0.536 µM) | 0.39 (≈ 0.536 µM) | 0.39 (≈ 0.536 µM) | > 100 | 0.39 (≈ 0.536 µM) | 0.05 (≈ 0.0687 µM) | 0.39 (≈ 0.536 µM) | 0.1 (≈ 0.137 µM) | 0.01 (≈ 0.0137 µM) | 0.02 (≈ 0.0275 µM) | 0.01 (≈ 0.0137 µM) | 100 (≈ 137 µM) | > 100 | > 100 | > 100 | > 100 | > 100 | MIC (ESCHERICHIA COLI JUHL): > 100 µg/mL; MIC [14]: > 100 µg/mL; MIC [15, 27]: > 100 µg/mL; MIC [16]: > 100 µg/mL; MIC ([17]; unit assumed): > 100 µg/mL; MIC [18, 28]: 3.1 µg/mL (≈ 4.26 µM); MIC (PSEUDOMONAS CEPACIA 296I): > 100 µg/mL; MIC [19]: > 100 µg/mL; MIC [20]: > 100 µg/mL; MIC (CANDIDA ALBICANS CCH 442): > 100 µg/mL; MIC [21]: > 100 µg/mL
2 | CC[C@H]1OC(=O)[C@H](C)C(=O)[C@H](C)[C@@H](O[C@@H]2O[C@H](C)C[C@H](N(C)C)[C@H]2O)[C@](C)(OC)C[C@@H](C)C2=N[C@@H](Cc3ccccc3)CN3C(=O)O[C@@]1(C)[C@H]3[C@H]2C [Example 4] | 0.2 (≈ 0.275 µM) | 0.2 (≈ 0.275 µM) | > 100 | 0.78 (≈ 1.07 µM) | 0.78 (≈ 1.07 µM) | 0.78 (≈ 1.07 µM) | > 100 | 0.78 (≈ 1.07 µM) | 0.1 (≈ 0.137 µM) | 0.39 (≈ 0.536 µM) | 0.1 (≈ 0.137 µM) | 0.005 (≈ 0.00687 µM) | 0.02 (≈ 0.0275 µM) | 0.05 (≈ 0.0687 µM) | > 100 | 100 (≈ 137 µM) | 25 (≈ 34.3 µM) | > 100 | 100 (≈ 137 µM) | > 100 | MIC (ESCHERICHIA COLI JUHL): > 100 µg/mL; MIC [14]: > 100 µg/mL; MIC [15, 27]: > 100 µg/mL; MIC [16]: > 100 µg/mL; MIC ([17]; unit assumed): > 100 µg/mL; MIC [18, 28]: 1.56 µg/mL (≈ 2.14 µM); MIC (PSEUDOMONAS CEPACIA 296I): > 100 µg/mL; MIC [19]: > 100 µg/mL; MIC [20]: > 100 µg/mL; MIC (CANDIDA ALBICANS CCH 442): 100 µg/mL (≈ 137 µM)
3 | CCC1OC(=O)C(C)C(=O)C(C)C(OC2OC(C)CC(N(C)C)C2O)C(C)(OC)CC(C)C2=NCC(CCc3ccccc3)N3C(=O)OC1(C)C3C2C (centres unmarked) [Example 39] | 0.78 (≈ 1.05 µM) | 0.39 (≈ 0.526 µM) | – | – | – | 0.39 (≈ 0.526 µM) | – | 0.78 (≈ 1.05 µM) | – | 0.2 (≈ 0.27 µM) | – | – | – | 0.01 (≈ 0.0135 µM) | – | 100 (≈ 135 µM) | – | – | – | – | MIC ([5]; listed as Ex 39, unit assumed): 0.39 µg/mL (≈ 0.526 µM); MIC (EN[…] ATCC 8043; E. faecium ATCC 8043, listed as Ex 39, unit assumed): 0.1 µg/mL (≈ 0.135 µM); MIC (M[…] ATCC 9341; M. luteus ATCC 9341, listed as Ex 39, unit assumed): 0.1 µg/mL (≈ 0.135 µM); MIC (STR[…] 508; S. agalactiae CMX 508, listed as Ex 39, unit assumed): 0.05 µg/mL (≈ 0.0674 µM); MIC ([11]; S. pyogenes 930, listed as Ex 39, unit assumed): 100 µg/mL (≈ 135 µM); MIC [22]: 0.2 µg/mL (≈ 0.27 µM); MIC (ESCHERICHIA COLI JUHL; listed as Ex 39): 100 µg/mL (≈ 135 µM); MIC (ESCHERICHIA COLI SS): 0.39 µg/mL (≈ 0.526 µM); MIC (ESCHERICHIA COLI H560; E. coli H560, listed as Ex 39, unit assumed): 25 µg/mL (≈ 33.7 µM); MIC ([12]; E. aerogenes ATCC 13048, listed as Ex 39, unit assumed): > 100 µg/mL; MIC ([15]; P. aeruginosa BMH10, listed as Ex 39, unit assumed): 50 µg/mL (≈ 67.4 µM); MIC ([17]; listed as Ex 39, unit assumed): 100 µg/mL (≈ 135 µM); MIC ([18]; P. aeruginosa K799/61, listed as Ex 39, unit assumed): 1.56 µg/mL (≈ 2.1 µM)
4 | CC[C@H]1OC(=O)[C@H](C)C(=O)[C@H](C)[C@@H](O[C@@H]2O[C@H](C)C[C@H](N(C)C)[C@H]2O)[C@](C)(OC)C[C@@H](C)C2=NC[C@H](COCc3ccc(OC)cc3)N3C(=O)O[C@@]1(C)[C@H]3[C@H]2C [Example 62] | 0.2 (≈ 0.254 µM) | 0.2 (≈ 0.254 µM) | > 100 | 0.2 (≈ 0.254 µM) | 0.2 (≈ 0.254 µM) | 0.2 (≈ 0.254 µM) | > 100 | 0.2 (≈ 0.254 µM) | 0.1 (≈ 0.127 µM) | 0.02 (≈ 0.0254 µM) | 0.01 (≈ 0.0127 µM) | 0.1 (≈ 0.127 µM) | 0.1 (≈ 0.127 µM) | 0.1 (≈ 0.127 µM) | > 100 | 50 (≈ 63.5 µM) | 100 (≈ 127 µM) | 100 (≈ 127 µM) | 25 (≈ 31.7 µM) | 25 (≈ 31.7 µM) | MIC [22]: 0.2 µg/mL (≈ 0.254 µM); MIC (ESCHERICHIA COLI SS): 0.2 µg/mL (≈ 0.254 µM); MIC [14]: > 100 µg/mL; MIC [15, 27]: 100 µg/mL (≈ 127 µM); MIC [16]: 100 µg/mL (≈ 127 µM); MIC ([17]; unit assumed): 25 µg/mL (≈ 31.7 µM); MIC [18, 28]: 0.2 µg/mL (≈ 0.254 µM); MIC (PSEUDOMONAS CEPACIA 296I): 12.5 µg/mL (≈ 15.9 µM); MIC [19]: 50 µg/mL (≈ 63.5 µM); MIC [20]: 100 µg/mL (≈ 127 µM); MIC (CANDIDA ALBICANS CCH 442): > 100 µg/mL; MIC [21]: 0.1 µg/mL (≈ 0.127 µM)
